Measurements taken from ChEMBL document CHEMBL1129998, “Pharmacological options in the treatment of benign prostatic hyperplasia” (J Med Chem, 1997).

Experiments:
[1] = biological target: T1, 3-oxo-5-alpha-steroid 4-dehydrogenase 1 (Homo sapiens, UniProt P18405); assay: Binding affinity for human 5 alpha reductase 1 isozyme
T1 sequence (P18405 whole entry): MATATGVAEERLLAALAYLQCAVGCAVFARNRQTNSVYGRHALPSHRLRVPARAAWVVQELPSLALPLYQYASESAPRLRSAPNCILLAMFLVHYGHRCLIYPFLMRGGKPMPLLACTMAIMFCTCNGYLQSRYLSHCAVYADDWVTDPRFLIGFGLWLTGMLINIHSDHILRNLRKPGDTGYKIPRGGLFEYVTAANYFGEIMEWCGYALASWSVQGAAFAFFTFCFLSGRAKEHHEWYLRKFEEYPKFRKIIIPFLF

[2] = biological target: 3 beta-hydroxysteroid dehydrogenase/Delta 5-->4-isomerase type 1 (Homo sapiens, UniProt P14060); assay: Binding affinity on 3 beta-hydroxysteroid dehydrogenase
[3] = biological target: T2, 3-oxo-5-alpha-steroid 4-dehydrogenase 2 (Homo sapiens, UniProt P31213); assay: Binding affinity for human 5-alpha reductase 2 isozyme
T2 sequence (P31213 whole entry): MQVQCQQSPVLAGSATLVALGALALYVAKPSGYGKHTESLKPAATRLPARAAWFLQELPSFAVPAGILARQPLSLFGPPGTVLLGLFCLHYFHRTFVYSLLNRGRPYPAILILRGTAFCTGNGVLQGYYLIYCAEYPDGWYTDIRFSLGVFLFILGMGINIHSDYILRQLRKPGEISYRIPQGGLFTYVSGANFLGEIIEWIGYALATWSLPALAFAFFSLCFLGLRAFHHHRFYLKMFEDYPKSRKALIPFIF

[4] = biological target: T3, Alpha-1D adrenergic receptor (Homo sapiens, UniProt P25100); assay: Binding affinity was tested on human Alpha-1D adrenergic receptor
T3 sequence (P25100 whole entry): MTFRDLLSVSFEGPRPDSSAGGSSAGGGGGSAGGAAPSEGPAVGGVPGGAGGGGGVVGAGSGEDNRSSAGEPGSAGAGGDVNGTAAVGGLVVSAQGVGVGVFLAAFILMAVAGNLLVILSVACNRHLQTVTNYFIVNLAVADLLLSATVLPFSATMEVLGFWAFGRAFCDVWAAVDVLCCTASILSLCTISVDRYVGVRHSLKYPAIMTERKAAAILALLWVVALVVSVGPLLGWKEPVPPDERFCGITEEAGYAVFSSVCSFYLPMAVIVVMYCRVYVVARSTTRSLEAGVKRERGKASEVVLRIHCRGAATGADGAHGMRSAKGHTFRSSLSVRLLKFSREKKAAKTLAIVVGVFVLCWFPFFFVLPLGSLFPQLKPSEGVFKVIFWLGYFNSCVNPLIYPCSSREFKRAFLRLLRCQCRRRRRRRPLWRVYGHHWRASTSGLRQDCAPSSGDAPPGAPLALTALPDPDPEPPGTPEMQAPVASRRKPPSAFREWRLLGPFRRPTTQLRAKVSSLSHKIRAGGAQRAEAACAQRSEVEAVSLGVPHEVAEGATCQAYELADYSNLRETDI

[5] = biological target: T4, Adrenergic receptor alpha-1 (Homo sapiens, UniProt P35348+P25100+P35368); assay: pA2 for Alpha-1 adrenergic receptor from human prostate.; assay type: tissue-based, Prostate gland
T4 sequence (P35348 whole entry): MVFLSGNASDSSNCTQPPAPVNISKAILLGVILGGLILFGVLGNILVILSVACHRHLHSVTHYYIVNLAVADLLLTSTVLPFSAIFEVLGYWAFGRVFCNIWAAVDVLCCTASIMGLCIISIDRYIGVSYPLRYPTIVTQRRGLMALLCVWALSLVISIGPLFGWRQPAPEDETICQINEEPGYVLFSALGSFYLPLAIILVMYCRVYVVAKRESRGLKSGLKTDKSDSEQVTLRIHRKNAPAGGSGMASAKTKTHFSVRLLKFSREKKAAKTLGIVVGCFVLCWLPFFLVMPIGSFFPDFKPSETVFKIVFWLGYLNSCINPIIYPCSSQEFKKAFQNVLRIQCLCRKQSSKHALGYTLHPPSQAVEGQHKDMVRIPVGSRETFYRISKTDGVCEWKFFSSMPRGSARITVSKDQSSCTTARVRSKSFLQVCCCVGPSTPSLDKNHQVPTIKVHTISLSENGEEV
T4 sequence (P25100 whole entry): T3 sequence (P25100 whole entry)
T4 sequence (P35368 whole entry): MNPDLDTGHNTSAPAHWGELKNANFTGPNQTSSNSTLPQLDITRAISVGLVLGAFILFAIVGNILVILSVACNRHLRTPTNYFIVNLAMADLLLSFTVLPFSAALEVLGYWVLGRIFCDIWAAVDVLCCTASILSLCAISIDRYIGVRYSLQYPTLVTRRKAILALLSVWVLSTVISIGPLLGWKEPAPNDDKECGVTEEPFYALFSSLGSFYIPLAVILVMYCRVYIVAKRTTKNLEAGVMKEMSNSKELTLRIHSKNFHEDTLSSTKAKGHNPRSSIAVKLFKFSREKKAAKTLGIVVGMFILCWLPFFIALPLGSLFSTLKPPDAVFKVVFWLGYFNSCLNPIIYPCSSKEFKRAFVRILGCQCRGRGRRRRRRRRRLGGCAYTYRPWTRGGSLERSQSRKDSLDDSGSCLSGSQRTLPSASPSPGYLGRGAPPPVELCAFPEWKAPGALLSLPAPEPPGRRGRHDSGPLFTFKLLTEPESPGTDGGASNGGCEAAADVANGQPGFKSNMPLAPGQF

[6] = biological target: T5, Alpha-1A adrenergic receptor (Homo sapiens, UniProt P35348); assay: Binding affinity was tested on human Alpha-1A adrenergic receptor
T5 sequence (P35348 whole entry): T4 sequence (P35348 whole entry)

[7] = biological target: T6, Alpha-1B adrenergic receptor (Homo sapiens, UniProt P35368); assay: Binding affinity was tested on human Alpha-1B adrenergic receptor
T6 sequence (P35368 whole entry): T4 sequence (P35368 whole entry)

Canis familiaris [8] = assay: 50% reduction in agonist induced pressor response in anesthetized dog; assay type: functional; details: Canis lupus familiaris; read-out: ID50 (the source's name)
Canis familiaris [9] = assay: 50% reduction in intraurethral pressure (IUP) in response to hypogastric nerve stimulation or agonist (phenylephrine or norepinephrine) administration in anesthetized dog; assay type: functional; details: Canis lupus familiaris; read-out: ID50 (the source's name)
[10] = Ratio of intraurethral pressure to that of pressor response in dog.; assay type: functional
[11] = Dose (iv) for 20% reduction of mean blood pressure in rat (ID20) with the dose for 50% inhibition of norepinephrine-mediated contraction of proximal urethra (ID50) in cat; assay type: functional
[12] = Binding affinity on human prostatic 5-alpha reductase isozyme
[13] = biological target: T7, Steroid 5-alpha-reductase (Rattus norvegicus, UniProt P24008+P31214); assay: Binding affinity on rat 5-alpha reductase isozyme; assay type: protein assay
T7 sequence (P24008 whole entry): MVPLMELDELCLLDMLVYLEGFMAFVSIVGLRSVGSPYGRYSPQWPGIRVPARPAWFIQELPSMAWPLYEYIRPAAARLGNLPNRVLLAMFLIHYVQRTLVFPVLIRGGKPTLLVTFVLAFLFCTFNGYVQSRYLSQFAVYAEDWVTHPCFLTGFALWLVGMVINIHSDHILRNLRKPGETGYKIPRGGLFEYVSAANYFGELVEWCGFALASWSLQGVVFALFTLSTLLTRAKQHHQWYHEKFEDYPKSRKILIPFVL
T7 sequence (P31214 whole entry): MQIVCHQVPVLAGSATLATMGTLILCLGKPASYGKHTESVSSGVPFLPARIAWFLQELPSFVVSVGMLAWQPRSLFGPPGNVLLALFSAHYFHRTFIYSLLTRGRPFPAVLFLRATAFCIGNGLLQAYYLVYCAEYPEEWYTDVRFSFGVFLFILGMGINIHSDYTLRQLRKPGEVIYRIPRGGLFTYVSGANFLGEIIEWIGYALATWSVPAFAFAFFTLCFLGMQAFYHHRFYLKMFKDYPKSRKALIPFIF

[14] = biological target: T8, Alpha-1A adrenergic receptor (Rattus norvegicus, UniProt P43140); assay: Binding affinity was tested on CEC-pretreated rat hippocampus Alpha-1A adrenergic receptor; assay type: tissue-based
T8 sequence (P43140 whole entry): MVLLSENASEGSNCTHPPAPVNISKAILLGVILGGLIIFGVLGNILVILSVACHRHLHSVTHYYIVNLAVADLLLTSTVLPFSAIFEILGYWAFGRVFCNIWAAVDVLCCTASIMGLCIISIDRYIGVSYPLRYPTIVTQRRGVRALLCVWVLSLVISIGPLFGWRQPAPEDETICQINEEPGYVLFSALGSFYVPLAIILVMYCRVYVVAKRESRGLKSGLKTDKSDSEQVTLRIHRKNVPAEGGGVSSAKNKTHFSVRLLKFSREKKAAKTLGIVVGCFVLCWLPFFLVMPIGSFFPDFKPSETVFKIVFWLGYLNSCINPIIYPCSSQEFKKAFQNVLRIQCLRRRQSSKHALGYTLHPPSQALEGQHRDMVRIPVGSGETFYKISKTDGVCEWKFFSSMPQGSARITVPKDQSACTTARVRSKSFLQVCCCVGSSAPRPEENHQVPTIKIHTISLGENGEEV

[15] = biological target: T9, Alpha-1B adrenergic receptor (Rattus norvegicus, UniProt P15823); assay: Binding affinity was tested on CEC-pretreated rat liver Alpha-1B adrenergic receptor
T9 sequence (P15823 whole entry): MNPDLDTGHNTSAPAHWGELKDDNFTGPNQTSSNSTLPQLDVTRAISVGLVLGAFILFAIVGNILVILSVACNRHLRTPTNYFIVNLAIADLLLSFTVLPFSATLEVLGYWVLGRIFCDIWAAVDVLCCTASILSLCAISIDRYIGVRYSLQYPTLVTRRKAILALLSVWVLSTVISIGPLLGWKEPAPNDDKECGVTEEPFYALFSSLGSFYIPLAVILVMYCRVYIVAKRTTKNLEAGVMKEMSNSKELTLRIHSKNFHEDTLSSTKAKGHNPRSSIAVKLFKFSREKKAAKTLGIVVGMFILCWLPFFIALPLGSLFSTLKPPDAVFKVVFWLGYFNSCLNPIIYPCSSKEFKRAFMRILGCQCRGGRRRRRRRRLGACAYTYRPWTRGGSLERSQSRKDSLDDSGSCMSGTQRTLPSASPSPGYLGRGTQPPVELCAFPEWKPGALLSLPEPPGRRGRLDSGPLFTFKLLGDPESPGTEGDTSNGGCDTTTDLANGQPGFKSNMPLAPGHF

[16] = In vivo dose (iv) for 50% inhibition of norepinephrine-mediated contraction of proximal urethra (ID50) with the dose (iv) for 25% reduction in systolic blood pressure (ED25) in anesthetized dogs; assay type: functional
[17] = biological target: T2, 3-oxo-5-alpha-steroid 4-dehydrogenase 2; assay: Inhibitory concentration on human 5-alpha reductase 2 (transfected SW-13 cells)

3 beta-hydroxysteroid dehydrogenase/Delta 5-->4-isomerase type 1, sequence (P14060 whole entry): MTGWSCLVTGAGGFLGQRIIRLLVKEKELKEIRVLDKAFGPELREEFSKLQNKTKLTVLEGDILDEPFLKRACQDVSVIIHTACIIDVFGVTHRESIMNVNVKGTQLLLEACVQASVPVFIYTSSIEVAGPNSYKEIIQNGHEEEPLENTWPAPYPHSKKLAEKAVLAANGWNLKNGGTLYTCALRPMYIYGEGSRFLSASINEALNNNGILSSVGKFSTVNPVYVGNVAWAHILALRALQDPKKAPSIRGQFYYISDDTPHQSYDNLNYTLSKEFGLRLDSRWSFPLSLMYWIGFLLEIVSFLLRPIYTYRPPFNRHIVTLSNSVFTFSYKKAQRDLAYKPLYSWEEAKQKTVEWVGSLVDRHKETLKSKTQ

Row | Compound | Ki [4] | Ki [6] | Ki [7] | ED50 (Canis familiaris [8]) | ED50 (Canis familiaris [9]) | Ratio [10] | also measured
1 | CC(C)(C)NC(=O)[C@H]1CC[C@H]2[C@@H]3CC[C@H]4NC(=O)C=C[C@]4(C)[C@H]3CC[C@]12C [FINASTERIDE] | – | – | – | – | – | – | Ki [1]: 150 nM
2 | CC(C)(C)CCNC(=O)[C@H]1CCC2C3CNC4=CC(=O)CC[C@]4(C)C3CC[C@@]21C (some centres not stated) | – | – | – | – | – | – | IC50 [2]: 8.3 nM
3 | C[C@]12CCC(=O)C(Cl)=C1NCC1C2CC[C@@]2(C)C1CC[C@@H]2C(=O)Nc1cc(C(F)(F)F)ccc1C(F)(F)F (some centres not stated) | – | – | – | – | – | – | IC50 [3]: < 0.1 nM; Ki [1]: 0.2 nM
4 | COc1ccc(Cl)cc1N1CCN(CCCNc2nccc(C(N)=O)n2)CC1 | 2.51 nM | 2.51 nM | 12.6 nM | 0.021 mg/kg | 0.005 mg/kg | 5 | pA2 [5]: 8.6; Ratio [11]: 46
5 | Cc1c[nH]c(=O)n(CCCN2CCN(c3ccc(F)cc3OCC(F)(F)F)CC2)c1=O | 100 nM | 1 nM | 79.4 nM | 0.38 mg/kg | 0.005 mg/kg | 76 | pA2 [5]: 8.8
6 | CC(C)N(C(=O)c1ccc(CCC2CCC(=O)N(C)C2)cc1)C(C)C (configuration not stated) | – | – | – | – | – | – | Ki [12]: > 20000 nM; Ki [13]: > 20000 nM
7 | COc1ccccc1N1CCN(CCNC(=O)c2cccc3c(=O)c(C)c(-c4ccccc4)oc23)CC1 | – | – | – | – | – | – | IC50 [14]: 14 nM; IC50 [15]: 79 nM; Ratio [16]: 14
8 | COc1ccccc1N1CCN(CCCNC(=O)c2ccccc2OCc2ccccc2)CC1 | – | – | – | – | – | – | Ratio [16]: 16
9 | COc1ccc(CCN2CCC(c3nc(COCC(F)(F)F)c(-c4ccc(F)cc4)o3)CC2)cc1S(N)(=O)=O | 25.1 nM | 0.2 nM | 15.8 nM | 7.25 mg/kg | 0.013 mg/kg | 550 | –
10 | CC(C)(C)NC(=O)[C@H]1CCC2C3CCC4=C(C#N)C(=O)CC[C@]4(C)C3CC[C@@]21C (some centres not stated) | – | – | – | – | – | – | IC50 [17]: 2.9 nM
